Measurements: PubChem BioAssay (NCI)
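Compound exposure: 48 hours, 5 concentrations, 96-well plates. TGI marks complete inhibition of growth.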

Tests used:
Assay in all cases: DTP human tumour cell line panel, 48 h
[1] = tested on: OVCAR-5 ovarian
[2] = tested on: SNB-19 CNS
[3] = tested on: BT-549 breast
[4] = tested on: MCF7 breast
[5] = tested on: MDA-MB-231 breast
[6] = tested on: IGROV1 ovarian
[7] = tested on: UACC-257 melanoma
[8] = tested on: RXF 393 renal
[9] = tested on: PC-3 prostate
[10] = tested on: SK-MEL-2 melanoma
[11] = tested on: HCT-116 colon
[12] = tested on: MDA-N

Structure (SMILES)	TGI [1]	TGI [2]	TGI [3]	TGI [4]	TGI [5]	TGI [6]	TGI [7]	TGI [8]	TGI [9]	TGI [10]	TGI [11]	TGI [12]
CC1=NC2=Nc3nc(C)cc[n+]3CN2C=C1	> 100 µM	> 100 µM	> 100 µM	> 100 µM	> 100 µM	> 100 µM	> 100 µM	> 100 µM	> 100 µM	> 100 µM	> 100 µM	–
CN(C)CCNC(=O)c1ccc(NCCCN(C)CCCNc2ccc(C(=O)NCCN(C)C)c3[nH]c4ccccc4c(=O)c23)c2c(=O)c3ccccc3[nH]c12	0.647 µM	0.419 µM	1.63 µM	0.44 µM	0.309 µM	2.07 µM	1.26 µM	1.15 µM	0.331 µM	0.262 µM	0.205 µM	–
CSc1ccc(-c2cc(-c3nc4ccccc4[nH]3)no2)cc1	> 100 µM	> 100 µM	55.5 µM	33.8 µM	> 100 µM	> 100 µM	85.9 µM	–	> 100 µM	49.4 µM	> 100 µM	> 100 µM
O=CNNC(=O)Nc1cccc2ccccc12	> 100 µM	> 100 µM	–	> 100 µM	> 100 µM	> 100 µM	> 100 µM	> 100 µM	–	–	> 100 µM	–
Cc1c2c3ccccc3nc-2n(C)c2ccccc12	8.27 µM	44.5 µM	19.3 µM	5.98 µM	–	12.2 µM	8.05 µM	6.01 µM	7.5 µM	–	> 100 µM	14.5 µM
CCC1(N=[N+]=[N-])C(=O)c2ccccc2N(C)C1=O (stereo unspecified)	> 100 µM	> 100 µM	–	–	–	> 100 µM	> 100 µM	–	–	> 100 µM	> 100 µM	–
O=C(NCCN1CCOCC1)c1cn2c(ccc3sc4ccccc4c(=O)c32)n1	> 100 µM	> 100 µM	> 100 µM	> 100 µM	> 100 µM	> 100 µM	> 100 µM	> 100 µM	> 100 µM	–	29 µM	> 100 µM
Brc1ccc(C[P+]2(c3ccccc3)CCCCC2)cc1	> 100 µM	> 100 µM	–	–	–	> 100 µM	73.8 µM	> 100 µM	–	> 100 µM	> 100 µM	–
C=C1C(=O)O[C@H]2C[C@@]3(COC(C)=O)C=COC=C(COC(=O)C(C)C)C3CC12 (stereo partly specified)	> 100 µM	> 100 µM	> 100 µM	> 100 µM	> 100 µM	> 100 µM	> 100 µM	> 100 µM	> 100 µM	–	> 100 µM	> 100 µM
Cc1ccc(NC=O)c(-c2c(N)[nH]c(=S)[nH]c2=O)c1	> 100 µM	> 100 µM	> 100 µM	> 100 µM	> 100 µM	> 100 µM	> 100 µM	> 100 µM	–	> 100 µM	> 100 µM	> 100 µM
O=S(=O)(O)c1cc(N=Nc2c(O)ccc3ccccc23)ccc1/C=C/c1ccc(N=Nc2c(O)ccc3ccccc23)cc1S(=O)(=O)O	> 100 µM	> 100 µM	> 100 µM	–	> 100 µM	> 100 µM	> 100 µM	> 100 µM	> 100 µM	> 100 µM	> 100 µM	> 100 µM
O=C(O)CCC(=O)c1ccc2c(c1)C(C(=O)O)CC2 (stereo unspecified)	> 100 µM	> 100 µM	–	> 100 µM	> 100 µM	> 100 µM	> 100 µM	23.1 µM	> 100 µM	> 100 µM	2.25 µM	> 100 µM
N#CN/C(N)=N/C/N=C(\N)NC#N	> 100 µM	> 100 µM	–	–	–	> 100 µM	> 100 µM	> 100 µM	–	> 100 µM	> 100 µM	–
OC1(c2ccc(-c3ccccc3)cc2)c2ccccc2C2=NCCN21 (stereo unspecified)	–	38.3 µM	> 100 µM	–	> 100 µM	–	> 100 µM	–	62.9 µM	24.9 µM	> 100 µM	> 100 µM
CO/N=C(/C)c1cccc(Nc2nc3ccccc3c3[nH]c4ccccc4c23)c1	22.3 µM	26.7 µM	–	19.9 µM	25.5 µM	30.6 µM	26.5 µM	–	22.3 µM	23.5 µM	14 µM	20.4 µM
CN(C(=O)Cc1ccccc1)n1cnn(CC(=O)OC(C)(C)C)c1=S	> 10 µM	> 10 µM	> 10 µM	> 10 µM	> 10 µM	> 10 µM	> 10 µM	–	> 10 µM	–	> 10 µM	> 10 µM
Cc1cnc2sn(-c3ccc([N+](=O)[O-])cc3)c(=O)c2c1	> 100 µM	> 100 µM	> 100 µM	> 100 µM	> 100 µM	> 100 µM	–	–	> 100 µM	> 100 µM	> 100 µM	> 100 µM
CCOC(=O)c1[nH]c(-c2[nH]c(-c3[nH]c(-c4[nH]c(C(=O)OCC)c(C)c4C(=O)OCC)c(C(=O)OCC)c3C)c(C)c2C(=O)OCC)c(C(=O)OCC)c1C	> 100 µM	> 100 µM	–	> 100 µM	> 100 µM	> 100 µM	> 100 µM	> 100 µM	> 100 µM	> 100 µM	> 100 µM	> 100 µM
NC(=S)/N=C(/c1nc2ccc(Cl)cc2[nH]c1=O)C(O)c1ccccc1Cl (stereo unspecified)	> 100 µM	–	–	–	–	> 100 µM	> 100 µM	> 100 µM	–	> 100 µM	–	–
O=C1/C(=C\c2cccc(Oc3ccccc3)c2)SC(c2ccccc2)N1c1ccccc1 (stereo unspecified)	> 100 µM	> 100 µM	> 100 µM	> 100 µM	> 100 µM	–	> 100 µM	> 100 µM	–	> 100 µM	> 100 µM	97.9 µM
[N-]=[N+]=NC(c1cn(C2CC(O)C(CO)O2)c(=O)[nH]c1=O)C(Br)Br (stereo unspecified)	> 100 µM	> 100 µM	–	–	–	> 100 µM	–	> 100 µM	–	> 100 µM	> 100 µM	–
